Legend:
Sphaerotheca fuliginea = assay: Controlling effect on Sphaerotheca fuliginea by foliage application (pot experiment); type: in vivo; conditions: foliage spray on cucumber (cv. TSUKUBASHIROIBO) first leaves, infected area after 10 days in greenhouse at 20° C.
Method: The following Test Examples illustrate the effects of the fungicide of the present invention. (I. Controlling effects on various plant diseases by foliage application (pot experiment)) A test compound was dissolved in a small amount of N,N-dimethylformamide, and the solution was diluted to a given concentration with distilled water containing a spreader. Thus, a liquid sample to be tested was prepared. The liquid sample was sprayed to test plants, and 24 hours thereafter, pathogens were inoculated by the method described below. […] Seeds of cucumber ([…]) were sown in plastic cups (each 9 cm in diameter), followed by cultivation for 2 to 3 weeks. The liquid test sample in the form of a solution or suspension was sprayed on the surface of their first leaves. The pathogen was inoculated to the leaves by spraying a conidia suspension of Sphaerotheca fuliginea which had been cultured on the cucumber leaves. After the inoculation, the plants were kept in a greenhouse at 20° C. for 10 days. Then, the infected area on the leaf was observed, and the percent control was calculated.

[1] = test system: Erysiphe graminis f. sp. tritici; assay: Controlling effect on Erysiphe graminis f. sp. tritici by foliage application (pot experiment); type: in vivo; conditions: foliage spray on wheat (cv. NORIN No. 61) seedlings, infected area after 10 days in greenhouse at 20° C.
Method: The following Test Examples illustrate the effects of the fungicide of the present invention. (I. Controlling effects on various plant diseases by foliage application (pot experiment)) A test compound was dissolved in a small amount of N,N-dimethylformamide, and the solution was diluted to a given concentration with distilled water containing a spreader. Thus, a liquid sample to be tested was prepared. The liquid sample was sprayed to test plants, and 24 hours thereafter, pathogens were inoculated by the method described below. […] The seeds of wheat (cv.: NORIN No. 61) were sown in plastic cups (each 9 cm in diameter), followed by cultivation for 2 to 3 weeks. The test compound in the form of a solution or suspension was sprayed to the seedlings, and conidia of Erysiphe graminis f. sp. tritici cultured on wheat leaves were dropped on the test plants to inoculate the plants with the pathogen. After the inoculation, the plants were kept in a greenhouse at 20° C. for 10 days. The infected area on the leaf was observed, and the percent control was calculated.

Structure (SMILES) | Controlling effect on Sphaerotheca fuliginea by foliage application at 500 ppm (percent control) (Sphaerotheca fuliginea) | Controlling effect on ErYsiphe graminis f. sp. tritici by foliage application at 500 ppm (percent control) [1]
CON=C(C1=NCCO1)c1ccccc1Oc1ccccc1 (single isomer, unassigned) [1341A] | 70 percent control | 90 percent control
CON=C(C1=NCCN1C)c1ccccc1Oc1ccccc1 (mixture of isomers) [compound 1161] | 70 percent control | 90 percent control
CON=C(C1=NCCO1)c1ccccc1COc1ccc(C)cc1 [compound 1312] | 70 percent control | 
CON=C(C1=NCCO1)c1ccccc1COc1cccc(C)c1 [compound 1311] | 70 percent control | 70 percent control
CON=C(C1=NCCO1)c1ccccc1Oc1ccccc1 (single isomer, unassigned) [1341B] | 70 percent control | 90 percent control
CON=C(c1ccccc1COc1cc(C)ccc1C)n1cccn1 [compound 294] | 97 percent control | 
CON=C(c1ccccc1COc1ccc(-c2ccccc2)cc1)c1nccn1C (single isomer, unassigned) [144B] | 70 percent control | 
CON=C(c1ncon1)c1ccccc1COc1ccccc1Cl [compound 805] | 97 percent control | 
CON=C(c1ccccc1COc1ccccc1Cl)n1cncn1 [compound 265] |  | 70 percent control
CON=C(c1ccccc1COc1cc(Cl)ccc1Cl)c1nccn1C (single isomer, unassigned) [131B] | 100 percent control | 
CON=C(c1ncc[nH]1)c1ccccc1COc1cc(C)ccc1C [compound 1428] | 100 percent control | 70 percent control
CON=C(c1ccccc1COc1cccc(C)c1)c1nccn1C (single isomer, unassigned) [113B] | 90 percent control | 
CON=C(c1ccccc1COc1ccccc1)c1nccn1C (single isomer, unassigned) [101A] | 70 percent control | 
CON=C(c1ccccc1COc1ccc(Cl)cc1)n1cnc(C)c1 [Compound No. 227] | 97 percent control | 70 percent control
CON=C(C1=NCCS1)c1ccccc1COc1cc(C)ccc1C [compound 1514] | 97 percent control | 70 percent control
CON=C(C1=NCCS1)c1ccccc1Oc1ccccc1 (mixture of isomers) [compound 1515] | 70 percent control | 90 percent control
CCON=C(c1ccccc1COc1ccccc1)n1cnc(C)c1 [compound 235] |  | 90 percent control
CON=C(c1noc(C)n1)c1ccccc1COc1cc(C)ccc1C (single isomer, unassigned) [936B] | 97 percent control | 90 percent control
CON=C(C1=NCCN1C)c1ccccc1COc1ccc(C)cc1 [compound 1114] | 70 percent control | 70 percent control
C=CCON=C(c1ccon1)c1ccccc1COc1ccccc1C (mixture of isomers) [compound 1667] |  | 70 percent control
CON=C(C1=NCCO1)c1ccccc1Oc1ncc(C(F)(F)F)cc1Cl [compound 1829] |  | 90 percent control

Structure (SMILES) | Controlling effect on Sphaerotheca fuliginea by foliage application at 500 ppm (percent control) (Sphaerotheca fuliginea) | Controlling effect on ErYsiphe graminis f. sp. tritici by foliage application at 500 ppm (percent control) [1]
CON=C(c1ccco1)c1ccccc1COc1cc(C)ccc1C (single isomer, unassigned) [1634A] | 100 percent control | 97 percent control
CON=C(c1cc(C)no1)c1ccccc1COc1ccccc1Cl (single isomer, unassigned) [605B] | 100 percent control | 90 percent control
CON=C(C1=NCCN1C)c1ccccc1COc1ccccc1C(F)(F)F [compound 1121] | 100 percent control | 90 percent control
CON=C(c1ncon1)c1ccccc1COc1cc(C)ccc1C (single isomer, unassigned) [836B] | 100 percent control | 97 percent control
CON=C(c1noc(C)n1)c1cc(Cl)ccc1Oc1ccc(C(F)(F)F)cn1 [compound 2120] | 70 percent control | 
CON=C(c1nnn(C)n1)c1ccccc1COc1ccccc1C [compound 2012] | 100 percent control | 70 percent control
CON=C(C1=NCCN1C)c1ccccc1COc1cccc(C(F)(F)F)c1 (single isomer, unassigned) [1122A] |  | 70 percent control
CON=C(C1=NCCO1)c1ccccc1Oc1ccc(C(F)(F)F)cn1 [compound 1826] | 70 percent control | 
CON=C(c1ncno1)c1ccccc1COc1cc(C)ccc1C [compound 1590] | 70 percent control | 
CON=C(c1ccco1)c1ccccc1COc1cc(C)ccc1C (single isomer, unassigned) [1634B] | 70 percent control | 
CON=C(c1nnco1)c1ccccc1COc1ccc(Cl)cc1 [compound 707] | 100 percent control | 90 percent control
CON=C(c1cc(C)ns1)c1ccccc1COc1cc(C)ccc1C [compound 1654] |  | 70 percent control
CON=C(c1cnco1)c1ccccc1COc1cc(C)ccc1C [compound 1734] | 90 percent control | 70 percent control
CON=C(C1=NCCN1)c1ccccc1COc1ccccc1Cl [compound 1455] |  | 70 percent control
CON=C(c1ccccc1COc1cc(C)ccc1C)c1ccnn1C (single isomer, unassigned) [1554B] |  | 70 percent control
CON=C(C1=NCCO1)c1ccccc1COc1ccccc1Cl [compound 1305] | 70 percent control | 
CON=C(c1ccccc1COc1ccccc1C)c1nccn1C (single isomer, unassigned) [112B] | 90 percent control | 
CCON=C(c1ccon1)c1ccccc1COc1ccccc1C (mixture of isomers) [compound 1665] |  | 70 percent control
CON=C(c1ccccc1COc1cccc(C(F)(F)F)c1)c1nccn1C (single isomer, unassigned) [122B] | 100 percent control | 
CON=C(c1ccccc1COc1ccc(F)cc1)c1nccn1C (single isomer, unassigned) [104B] |  | 70 percent control
CON=C(C1=NCCN1C)c1ccccc1COc1ccccc1 [compound 1101] |  | 90 percent control

From patent US6362212B1, “Oxime derivative and bactericide containing the same as active ingredient” (Shionogi & Company, Ltd., priority 1994, dated 2002)
